Numbers after ± are expanded uncertainties.

For one series the following is noted: 308.15 K; 101.33 kPa; Liquid; Vibrating tube method.
In the case of `CCCCCCCC/C=C\CCCCCCCC(=O)[O-].CCCCCCCC[N+](CCCCCCCC)(CCCCCCCC)CCCCCCCC` [tetraoctylammonium oleate], the mass density – broadly, mass per unit of volume – was found to be 869.2 ± 7.4 kg/m3.

The same series, now with this note: 313.15 K; 101.33 kPa; Liquid; Concentric cylinders viscometry.
In the case of `CCCCC(CC)CCC(=O)[O-].CCCCCCCC[N+](C)(CCCCCCCC)CCCCCCCC` [methyltrioctylammonium 4-ethyloctanoate], the viscosity (as a rule, the internal friction of a fluid under shear) was 1159.3 ± 150 mPa·s.
Still for that read-out and setting: for `CCCCCCCC/C=C\CCCCCCCC(=O)[O-].CCCCCCCC[N+](C)(CCCCCCCC)CCCCCCCC` [methyltrioctylammonium oleate] the value was 692.7 ± 49 mPa·s.
On the same count and under the same terms, for `CCCCCCCC/C=C\CCCCCCCC(=O)[O-].CCCCCC[N+](CCCCCC)(CCCCCC)CCCCCC` [tetrahexylammonium oleate] the value was 530.9 ± 36 mPa·s; for `CCCCCCCC/C=C\CCCCCCCC(=O)[O-].CCCCCCCC[N+](CCCCCCCC)(CCCCCCCC)CCCCCCCC` [tetraoctylammonium oleate], 420.8 ± 29 mPa·s.

Staying with this series, now noted: 313.15 K; 101.33 kPa; Liquid; Vibrating tube method.
In the case of `CCCCC(CC)CCC(=O)[O-].CCCCCCCC[N+](C)(CCCCCCCC)CCCCCCCC` [methyltrioctylammonium 4-ethyloctanoate], the mass density is on record as 881 ± 18 kg/m3.
Same read-out and setting: the value for `CCCCCCCC/C=C\CCCCCCCC(=O)[O-].CCCCCCCC[N+](C)(CCCCCCCC)CCCCCCCC` [methyltrioctylammonium oleate] was 878.5 ± 7.4 kg/m3; that for `CCCCCCCC/C=C\CCCCCCCC(=O)[O-].CCCCCC[N+](CCCCCC)(CCCCCC)CCCCCC` [tetrahexylammonium oleate] was 877.8 ± 5.4 kg/m3.
Consider `CCCCCCCC/C=C\CCCCCCCC(=O)[O-].CCCCCCCC[N+](CCCCCCCC)(CCCCCCCC)CCCCCCCC` [tetraoctylammonium oleate], for which the mass density worked out at 866.1 ± 7.3 kg/m3.

Staying with this series, now noted: 318.15 K; 101.33 kPa; Liquid; Concentric cylinders viscometry.
Turning to `CCCCC(CC)CCC(=O)[O-].CCCCCCCC[N+](C)(CCCCCCCC)CCCCCCCC` [methyltrioctylammonium 4-ethyloctanoate], the viscosity was 820.4 ± 110 mPa·s.
On the same count and under the same terms, the value for `CCCCCCCC/C=C\CCCCCCCC(=O)[O-].CCCCCCCC[N+](C)(CCCCCCCC)CCCCCCCC` [methyltrioctylammonium oleate] was 511.3 ± 36 mPa·s; that for `CCCCCCCC/C=C\CCCCCCCC(=O)[O-].CCCCCC[N+](CCCCCC)(CCCCCC)CCCCCC` [tetrahexylammonium oleate] was 384.9 ± 26 mPa·s; that for `CCCCCCCC/C=C\CCCCCCCC(=O)[O-].CCCCCCCC[N+](CCCCCCCC)(CCCCCCCC)CCCCCCCC` [tetraoctylammonium oleate] was 314.4 ± 21 mPa·s.

The same series, now with this note: 318.15 K; 101.33 kPa; Liquid; Vibrating tube method.
On to `CCCCC(CC)CCC(=O)[O-].CCCCCCCC[N+](C)(CCCCCCCC)CCCCCCCC` [methyltrioctylammonium 4-ethyloctanoate], for which the mass density turned out to be 877.9 ± 18 kg/m3.
In the case of `CCCCCCCC/C=C\CCCCCCCC(=O)[O-].CCCCCCCC[N+](C)(CCCCCCCC)CCCCCCCC` [methyltrioctylammonium oleate], the mass density was found to be 875.5 ± 7.4 kg/m3.
Still for that read-out and setting: the value for `CCCCCCCC/C=C\CCCCCCCC(=O)[O-].CCCCCC[N+](CCCCCC)(CCCCCC)CCCCCC` [tetrahexylammonium oleate] was 874.8 ± 5.4 kg/m3.
Still for that read-out and setting: the value for `CCCCCCCC/C=C\CCCCCCCC(=O)[O-].CCCCCCCC[N+](CCCCCCCC)(CCCCCCCC)CCCCCCCC` [tetraoctylammonium oleate] was 863.1 ± 7.3 kg/m3.

The series is the same for the next values; noted with them: 323.15 K; 101.33 kPa; Liquid; Concentric cylinders viscometry.
As to `CCCCC(CC)CCC(=O)[O-].CCCCCCCC[N+](C)(CCCCCCCC)CCCCCCCC` [methyltrioctylammonium 4-ethyloctanoate], the viscosity was found to be 592.1 ± 77 mPa·s.
Still for that read-out and setting: the value for `CCCCCCCC/C=C\CCCCCCCC(=O)[O-].CCCCCCCC[N+](C)(CCCCCCCC)CCCCCCCC` [methyltrioctylammonium oleate] was 384.4 ± 26 mPa·s; that for `CCCCCCCC/C=C\CCCCCCCC(=O)[O-].CCCCCC[N+](CCCCCC)(CCCCCC)CCCCCC` [tetrahexylammonium oleate] was 285.3 ± 19 mPa·s.
Turning to `CCCCCCCC/C=C\CCCCCCCC(=O)[O-].CCCCCCCC[N+](CCCCCCCC)(CCCCCCCC)CCCCCCCC` [tetraoctylammonium oleate], the viscosity was 239.4 ± 16 mPa·s.

The series is the same for the next values; noted with them: 323.15 K; 101.33 kPa; Liquid; Vibrating tube method.
On to `CCCCC(CC)CCC(=O)[O-].CCCCCCCC[N+](C)(CCCCCCCC)CCCCCCCC` [methyltrioctylammonium 4-ethyloctanoate], for which the mass density amounted to 874.9 ± 17 kg/m3.
The same measure, in the same setting: for `CCCCCCCC/C=C\CCCCCCCC(=O)[O-].CCCCCCCC[N+](C)(CCCCCCCC)CCCCCCCC` [methyltrioctylammonium oleate] the value was 872.5 ± 7.4 kg/m3.
Same read-out and setting: the value for `CCCCCCCC/C=C\CCCCCCCC(=O)[O-].CCCCCC[N+](CCCCCC)(CCCCCC)CCCCCC` [tetrahexylammonium oleate] was 871.8 ± 5.4 kg/m3; that for `CCCCCCCC/C=C\CCCCCCCC(=O)[O-].CCCCCCCC[N+](CCCCCCCC)(CCCCCCCC)CCCCCCCC` [tetraoctylammonium oleate] was 860.1 ± 7.3 kg/m3.

The series is the same for the next values; noted with them: 328.15 K; 101.33 kPa; Liquid; Concentric cylinders viscometry.
Regarding `CCCCC(CC)CCC(=O)[O-].CCCCCCCC[N+](C)(CCCCCCCC)CCCCCCCC` [methyltrioctylammonium 4-ethyloctanoate], the viscosity is 434.7 ± 56 mPa·s.
Consider `CCCCCCCC/C=C\CCCCCCCC(=O)[O-].CCCCCCCC[N+](C)(CCCCCCCC)CCCCCCCC` [methyltrioctylammonium oleate], for which the viscosity was 293.8 ± 20 mPa·s.
Still for that read-out and setting: the value for `CCCCCCCC/C=C\CCCCCCCC(=O)[O-].CCCCCC[N+](CCCCCC)(CCCCCC)CCCCCC` [tetrahexylammonium oleate] was 215.5 ± 14 mPa·s; that for `CCCCCCCC/C=C\CCCCCCCC(=O)[O-].CCCCCCCC[N+](CCCCCCCC)(CCCCCCCC)CCCCCCCC` [tetraoctylammonium oleate] was 185.4 ± 12 mPa·s.

The series is the same for the next values; noted with them: 328.15 K; 101.33 kPa; Liquid; Vibrating tube method.
Consider `CCCCC(CC)CCC(=O)[O-].CCCCCCCC[N+](C)(CCCCCCCC)CCCCCCCC` [methyltrioctylammonium 4-ethyloctanoate], for which the mass density was found to be 871.8 ± 17 kg/m3.
On to `CCCCCCCC/C=C\CCCCCCCC(=O)[O-].CCCCCCCC[N+](C)(CCCCCCCC)CCCCCCCC` [methyltrioctylammonium oleate], for which the mass density is given as 869.5 ± 7.4 kg/m3.
Regarding `CCCCCCCC/C=C\CCCCCCCC(=O)[O-].CCCCCC[N+](CCCCCC)(CCCCCC)CCCCCC` [tetrahexylammonium oleate], the mass density is on record as 868.8 ± 5.4 kg/m3.

For the origin of these results see the NIST ThermoML archive (doi:10.1016/j.jct.2016.04.021).
